{"source": "patent US20080089851A1", "about": "“Brown Algae Cell Lyophilisate, Method For The Obtention Thereof” (BIOTECHMARINE, priority 2005, published 2008)", "key": {"[1]": {"system": "reconstructed melanized human epidermal skins", "assay": "Pigmentation test: melanic content by image analysis (Fontana Masson)", "format": "cell-based", "details": "WITHOUT UV; α-MSH 100 nM", "experimental": "3. —Histological Assessment\nThe epidermis skins ware fixed in formaldehyde from the end of incubation, then embedded in paraffin blocs. Subsequently sections of 4 μm thickness were cut.\nSaid slides by condition were carried out with a magnification ×400. The visualisable melanin on these slides was quantified by image analysis using the Image J program.\nThe results are expressed in form of the surface occupied by the melanin (number of pixels the grey scale of which is between 0 and 100; 0=black/255=white) in each slide (average +/−standard deviation, SD).\nThe statistical significance of the noted differences between the treated conditions and controls was assessed by a Student's test (*: p<0.05, **: p<0.01; ***: p<0.001)."}, "[2]": {"system": "reconstructed melanized human epidermis", "assay": "Pigmentation test: biochemical quantification of the melanic content", "format": "cell-based", "details": "α-MSH 100 nM", "experimental": "1. —Materials and Methods\nThe BB product is diluted in ethanol then incorporated into a cosmetic formulation.\na—BB product incorporated in formulation at 0.05%\nb—BB product incorporated in formulation at 0.15%\nc—BB product incorporated in formulation at 0.30%\nThey are conserved at 4° C. until use thereof.\n2. —Biochemical Assessment\nAt the end of the incubation, the melanin contained in cell lysates was quantified by a spectrophotometrical method. A range of melanin was carried out in parallel with the assay.\nThe results are expressed in […] of melanin per ml of lysate of the cell carpets (average +/−standard deviation SD).\nThe statistical significance of the observed differences between the conditions <<treated >> and <<controls >> was assessed by variance analysis to a factor (One Way ANOVA) followed by a test of Bonferroni t-test (*:p<0.05;**:p<0.01)."}}, "note": "Values joined by “and” are separate entries in the source; they are usually repeats but may differ in a detail not shown here. Identical values can stand only once.", "data": [{"substance": "α-MSH", "values": [{"measurement": "Surface occupied by the melanin, % medium alone", "setting": "[1]", "result": 208, "unit": "%"}, {"measurement": "Surface occupied by the melanin, Average", "setting": "[1]", "result": 40277.8, "unit": "pixels"}, {"measurement": "Melanin, % medium alone", "setting": "[2]; +UVA", "result": 141, "unit": "%"}, {"measurement": "Melanin, Average", "setting": "[2]; +UVA", "result": 96.1, "unit": "µg/mL"}, {"measurement": "Melanin, single values", "setting": "[2]; +UVA", "result": "95.6 µg/mL and 84.7 µg/mL and 107.9 µg/mL"}, {"measurement": "Melanin, % medium alone", "setting": "[2]; +UVB", "result": 128, "unit": "%"}, {"measurement": "Melanin, Average", "setting": "[2]; +UVB", "result": 106.5, "unit": "µg/mL"}, {"measurement": "Melanin, single values", "setting": "[2]; +UVB", "result": "99.5 µg/mL and 115.5 µg/mL and 104.6 µg/mL"}, {"measurement": "Melanin, % medium alone", "setting": "[2]; WITHOUT UV", "result": 141, "unit": "%"}, {"measurement": "Melanin, Average", "setting": "[2]; WITHOUT UV", "result": 80.7, "unit": "µg/mL"}, {"measurement": "Melanin, single values", "setting": "[2]; WITHOUT UV", "result": "70.3 µg/mL and 86.9 µg/mL and 85 µg/mL"}]}]}
